Entries after “also recorded” stand apart in the source; their conditions may differ.
Legend:
[1] = tested on: primary mouse hippocampal neurons; experiment: NMDA receptor induced mitochondrial membrane potential breakdown (Rh123 imaging); type: cell-based
Experimental: Coverslips with primary cultured neurons (DIV15-DIV17) were used to examine mitochondrial membrane potential (Ψm) and mitochondrial calcium signalling, which was performed at room temperature in CO2-independent culture medium (CICM) containing: 10 mM HEPES, 140 mM NaCl, 2.5 mM KCl, 1.0 mM MgCl2, 2.0 mM CaCl2, 1.0 mM Glycine, 35.6 mM Glucose and 0.5 mM Na-pyruvate. All images were obtained by a cooled-CCD camera (iXon 887, Andor) on an upright microscope (BX51WI, Olympus). Fluorescence excitation was provided by a xenon arc lamp in combination with an excitation filter wheel (MT-20, Olympus). Data were collected using Cell^R software (Olympus), analysed using ImageJ and quantified using Igor Pro (WaveMetrics). Ψm was detected with the small molecule fluorescence indicator Rhodamine 123 (Rh123; Molecular Probe™, R302). Primary cultured neurons were loaded with 4.3 μM Rh123 in CICM at 37° C. for 30 min, then washed and left in CICM for another 30 min before recording. At the end of each experiment, the mitochondrial uncoupler FCCP (5 μM, Sigma-Aldrich, Cat #C2920) was applied to the cells to reach the maximal Rh123 fluorescence intensity. Rh123 was imaged with 470±20 nm excitation and 525±25 nm emission wavelengths using a 20× objective. Rh123 fluorescence intensity was measured in the nucleus to minimize contamination from cytosolic mitochondrial signal and Rh123 fluorescence intensity was normalized to the maximum FCCP signal for each region of interest.
Mitochondrial dysfunction is a hallmark of NMDA receptor excitotoxicity and an early event en-route to neuronal death. A parameter that is often used to assess mitochondrial integrity is the mitochondrial membrane potential. A breakdown of the mitochondrial membrane potential can be observed after exposure of hippocampal or cortical neurons to NMDA and indicates excitotoxicity-associated mitochondrial dysfunction. Therefore, the inventors investigated the effect of polypeptides comprising the sequence of SEQ ID NO:5 or SEQ ID NO: 54 as well as of the control TRMP5 sequence (SEQ ID NO: 55) on mitochondrial membrane potential break down in primary mouse hippocampal neurons. Excitotoxicity leading to mitochondrial membrane potential break down was induced with bath application of 20 μM NMDA. After 11 minutes, the mitochondrial uncoupler, carbonylcyanide-p-trifluoromethoxyphenylhydrazone (FCCP) was added. Addition of FCCP leads to break-down of the mitochondrial membrane potential and served as a control of the test system.

[2] = tested on: HEK293 cells; experiment: Luminescent cytotoxicity assay, HEK293 cells transfected with GRIN1 and GRIN2A or GRIN2B; type: cell-based, human; details: compound added 6 h after transfection; cell death 48 h after transfection
Experimental: HEK293 cells were cultured in Dulbecco's Modified Eagle Medium (DMEM, Gibco™ 41965-039) supplement with 10% Fetal Bovine Serum (FBS, Gibco™, 10270), 1% Sodium Pyruvate (Gibco™, 11360070), 1% MEM NEAA (GibcoT^M, 11140035) and 0.5% Penicillin-Streptomycin (P-S; Sigma, P0781) and Passagel5-25 were used for experiments.
To test the cytotoxicity of compounds according to the present invention, HEK293 cells (70-80% confluent) were transfected 24 hours after plating with both GRIN1 and GRIN2 Å or GRIN2B, respectively (1:[…]) with Lipofectamine 2000 according to manufacturer's instructions. The relative number of dead cells in the population at the indicated time points after transfection was measured with the CytoTox-Glo™ Cytotoxicity assay (Promega, G9290) according to manufacturer's instruction with minor modification. Briefly, 10% of total medium were mixed with 10 μL AAF-amino luciferin to reach a final volume at 200 μL with water, the dead cell relative luminescence units (DRLU) was measured by GloMax (Promega) in a 96 well white bottom polystyrene microplate (Corning Costar®, 3912). After all the measurements, lysis reagents have been added to the cells and 10% of lysate was used for the total cell relative luminescence units (TRLU) measurement. Cell death was calculated by the following equations: […]
For drug testing, P4, P8, P9, P13 and P15 were added to the medium at indicated concentration 6 h after transfection. DRLU, TRLU and cell death were measured and calculated 48 h after transfection.

[3] = tested on: NMDA receptor; experiment: NMDA-induced calcium transients (Fura2 calcium imaging); type: cell-based, mouse; details: hippocampal neurons, 6 min NMDA (20 μM) application
Experimental: In a further experiment, the impact of P4 and P15 on NMDA-induced calcium transients was assessed. Briefly, for calcium imaging, primary hippocampal neurons on coverslips were loaded with the cell-permeable, high-affinity ratiometric calcium indicator Fura2-AM (Invitrogen™ F1221), at 1 μM in CO2-independent culture medium (CICM; CICM contains: 10 mM HEPES, 140 mM NaCl, 2.5 mM KCl, 1.0 mM MgCl2, 2.0 mM CaCl2, 1.0 mM Glycine, 35.6 mM Glucose and 0.5 mM Na-pyruvate) for 30 min at 37° C., then washed and left in CICM for another 30 min to allow for de-esterification. Fura2 was excited at 340/11 nm and 380/11 nm, and fluorescence emission was obtained from a 40× UV compatible objective (LUMPLFLN, Olympus) through a 510/20 nm emission filter. For quantification, ImageJ was used to calculate average background-subtracted fluorescence intensities for 340 and 380 nm excitation (F340 and F380) from each neuron. Intracellular calcium levels were plotted as F340/F380 ratios over time, from which the NMDA response amplitude and area under the curve (AUC) was calculated to quantify NMDA-induced calcium influx.

[4] = target: T1, TRPM4 channel (Homo sapiens, UniProt Q8TD43); experiment: TRPM4 channel function, whole-cell patch clamp in PC3 cells; type: cell-based; details: 10 μM compound, pre-incubated 30-60 min
T1 construct: PC3 cells are known to express TRPM4 channels; endogenous in cells; host or cells: PC3 prostate cancer cell line
Excerpt: To assess any direct impact of compound P4 and compound P15 on TRPM4 channel function independent of NMDA receptors, the inventors used the prostate cancer cell line PC3 and patch clamp recordings. PC3 cells are known to express TRPM4 channels (C. Holzmann et al., Oncotarget. 6, 41783-93 (2015)). TRPM4 currents in turn are characterized by their calcium dependence and outward rectification (P. Launay et al., Cell. 109, 397-407 (2002)). Briefly, whole-cell patch clamp recordings were made from PC3 cells plated on 12 mm round coverslips secured with a platinum ring in a recording chamber (OAC-1, Science Products GmbH) mounted on a fixed-stage upright microscope (BX51WI, Olympus). […] Patch electrodes (3-4 MΩ) were made from 1.5 mm borosilicate glass and filled with cesium-based solutions (in mM: CsCl, 145; NaCl, 8; HEPES, 10; MgCl2, 1; plus either EGTA, 0.2 for a free Ca^2+ concentration of zero; or EGTA, 10 and CaCl2), 9.4 for a calculated free Ca^2+ concentration of 10 μM; Maxchelator, Stanford University). Recordings were made with a Multiclamp 700B amplifier, digitized through a Digidata 1550B and acquired and analyzed using pClamp 10 software (Molecular Devices). Access resistance (range: 10-20 MΩ) was monitored regularly during voltage clamp recordings and data was rejected if changes greater than 20% occurred.

[5] = tested on: primary mouse hippocampal neurons; experiment: NMDA induced cell death (excitotoxicity) in cultured primary neurons; type: cell-based; details: polypeptide expressed via rAAV infection on DIV3; NMDA 20 μM for 10 min; cell death assessed 24 h later
Experimental: Primary mouse hippocampal and cortical neurons were prepared and maintained as known. Briefly, hippocampi or cerebral cortex from P0 C57Bl/6NCrl mice were dissociated and plated at a density of 1.2*105/cm^2 in Growth Medium (GM), consisting of Neurobasal A medium (Gibco™, 10888022), 2% serum free B27™ Supplement (Gibco™, 17504044), 1% rat serum (Biowest, S2150), 0.5 mM L-Glutamine (Sigma, G7513) and 0.5% P-S. Cytosine β-D-arabinofuranoside (AraC; Sigma, C1768; 2.8 μM) was added on DIV3 to prevent the proliferation of glial cells. From DIV8, half of the medium was replaced by GM without Rat serum every 48 h until being used for experiments. 24 h before experiments, GM was replaced with transfection medium (10 mM HEPES, pH 7.4, 114 mM NaCl, 26.1 mM NaHCO3, 5.3 mM KCl, 1 mM MgCl2, 2 mM CaCl2, 30 mM glucose, 1 mM glycine, 0.5 mM C3H3NaO3, and 0.001% phenol red and 10% of phosphate-free Eagle's minimum essential medium, supplemented with 7.5 µg/ml insulin, 7.5 µg/ml transferrin and 7.5 ng/ml sodium selenite (ITS Liquid Media Supplement, Sigma-Aldrich Cat #I3146)). Primary hippocampal neurons were used in live cell imaging, cell death experiments, while cortical neurons were used for mRNA and protein extraction analysis.
All viral particles were produced and purified as known in the art. All TRPM4 derived peptides (comprising SEQ ID NO:5, or any of SEQ ID NO:46 to SEQ ID NO:56) were cloned into rAAV backbone by PCR. shRNA against mouse TRPM4 were designed by BLOCK-iT™ RNAi Designer from Thermofisher to target: […] (SEQ ID NO:44, shTRPM4-1) and […] (SEQ ID NO:45, shTRPM4-2). Scramble shRNA (shSCR) has been tested and proven to have no known targets in mice. GPI anchor ([…], e.g. used in SEQ ID NO:53) sequences were synthesized by Eurofins Genomics (Ebersberg, Germany). All primers were synthesized and all plasmids were confirmed by sequencing by Eurofins Genomics.
In order to investigate the role of TRPM4 in NMDA receptor mediated excitotoxicity, the inventors used RNA interference strategies to knock down TRPM4. Cultured primary mouse hippocampus neurons were infected on day 3 in vitro (DIV3) with recombinant adeno-associated viruses (rAAVs) providing for expression of a scramble control (shSCR), shTRPM4-1 (SEQ ID NO:44) or shTRPM4-2 (SEQ ID NO:45). On DIV15-16, neurons were challenged with N-methyl-D-aspartate (NMDA, 20 μM) for 10 min. After NMDA wash out, neurons were kept in the culture medium for another 24 h before analysis. […] Evidently, TRPM4 is thus involved in the process of NMDA receptor mediated excitotoxicity.
In a next step, the inventors tried to identify regions in the mouse TRPM4 protein potentially involved in NMDA receptor mediated excitotoxicity. For this purpose, polypeptide fragments of mouse TRPM4 protein were generated and their impact on NMDA induced excitotoxicity analysed. To do so, primary neuron cultures were infected with respective rAAVs on DIV3, challenged with NMDA (20 μM) for 10 min on DIV17 and cell death assessed 24 hours later.
The sequence of SEQ ID NO:5 in TRPM4 is located in vivo just beneath the plasma membrane. […] To test this hypothesis, the inventors created a fusion protein comprising SEQ ID NO:5 and a GPI anchor, SEQ ID NO:57. The sequence of the fusion is given in SEQ ID NO:53. Neurons infected with rAAV and expressing SEQ ID NO:47 (control) or SEQ ID NO:53 were exposed to NMDA (20 μM) for 10 min on DIV15-16, with cell death assessed after 24 h.
In a next step, the inventors created a mutant of SEQ ID NO:5, in which two adjacent phenylalanine residues where substituted by tyrosine residues (SEQ ID NO: 54). […] TRPM5 is a protein related to but nonetheless distinct to TRPM4. The region in TRPM5 corresponding to SEQ ID NO:5, SEQ ID NO:55, shares only about 60% sequence identity with SEQ ID NO:5. Neurons were infected on DIV3 with rAAVs expressing SEQ ID NO: 5, SEQ ID NO: 54 or SEQ ID NO:55 and exposed to NMDA (20 μM) for 10 min on DIV17, with cell death assessed 24 h later. […]

[6] = tested on: synaptic NMDA receptor; experiment: Gabazine induced calcium influx into mitochondria (synaptic NMDA receptor signalling); type: cell-based, mouse; details: primary cultured neurons, polypeptides expressed via rAAV
Experimental: Gabazine induced mitochondrial Ca^2+ response in primary cultured neurons is recorded and analysed as described in a previous study (Qiu et al, Nat Commun. 2013; 4:2034, incorporated herewith by reference) using a FRET calcium indicator 4mtD3cpv that specifically located to mitochondria. Briefly, mitochondrial Ca^2+ levels were detected with FRET-based and mitochondrial targeted Ca^2+ indicator 4mtD3cpv. 4mtD3cpv were excited at 430±12 nm (CFP) and 500±10 nm (YFP), and emission of CFP (470±12 nm) and YFP (535±15 nm) were separated and filtered using a DualView beam splitter (AHF Analysentechnik and MAG Biosystems), and all fluorescence images were recorded through a 20× water-immersion objective at 1 Hz.
In a further experiment the inventors assessed the impact of the polypeptide comprising the sequence of SEQ ID NO:5 and SEQ ID NO: 54, respectively, on Gabazine induced calcium influx (mitochondria), a measure of synaptic NMDA receptor signalling. The experiment was carried out in primary cultured neurons as described above.

T1 sequence (Q8TD43 whole entry): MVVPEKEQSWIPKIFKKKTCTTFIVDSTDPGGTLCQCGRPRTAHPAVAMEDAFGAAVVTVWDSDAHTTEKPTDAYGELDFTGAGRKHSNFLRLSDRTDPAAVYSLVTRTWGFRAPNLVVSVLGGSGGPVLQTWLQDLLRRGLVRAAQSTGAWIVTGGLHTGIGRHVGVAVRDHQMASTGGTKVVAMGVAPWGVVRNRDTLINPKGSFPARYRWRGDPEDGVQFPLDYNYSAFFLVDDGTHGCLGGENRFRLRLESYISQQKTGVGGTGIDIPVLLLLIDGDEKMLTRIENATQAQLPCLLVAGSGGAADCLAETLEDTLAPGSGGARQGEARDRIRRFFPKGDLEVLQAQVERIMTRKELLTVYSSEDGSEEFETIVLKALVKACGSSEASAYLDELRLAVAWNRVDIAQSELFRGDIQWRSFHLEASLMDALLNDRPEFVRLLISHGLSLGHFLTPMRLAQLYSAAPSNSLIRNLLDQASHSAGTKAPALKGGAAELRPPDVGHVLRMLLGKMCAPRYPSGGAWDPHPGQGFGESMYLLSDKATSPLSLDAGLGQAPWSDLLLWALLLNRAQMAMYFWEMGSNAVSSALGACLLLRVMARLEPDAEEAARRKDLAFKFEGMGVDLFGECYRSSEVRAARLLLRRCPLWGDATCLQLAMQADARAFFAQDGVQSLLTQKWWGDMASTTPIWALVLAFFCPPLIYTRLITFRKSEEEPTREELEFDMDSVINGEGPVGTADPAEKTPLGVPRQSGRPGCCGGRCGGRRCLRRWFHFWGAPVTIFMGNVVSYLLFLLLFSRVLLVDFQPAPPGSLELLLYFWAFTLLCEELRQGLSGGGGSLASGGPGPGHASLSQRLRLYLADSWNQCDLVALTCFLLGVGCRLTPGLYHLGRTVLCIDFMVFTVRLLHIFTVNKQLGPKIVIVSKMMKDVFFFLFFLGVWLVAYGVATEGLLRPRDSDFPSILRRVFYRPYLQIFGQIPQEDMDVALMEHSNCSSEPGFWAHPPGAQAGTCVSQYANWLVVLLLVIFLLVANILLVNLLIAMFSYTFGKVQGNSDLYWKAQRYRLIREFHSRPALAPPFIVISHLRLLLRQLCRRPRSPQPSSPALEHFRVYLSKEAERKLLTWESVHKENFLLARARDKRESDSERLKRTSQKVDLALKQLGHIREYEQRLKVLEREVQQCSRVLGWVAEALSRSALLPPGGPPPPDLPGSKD

| Compound | protection of mitochondrial membrane potential from NMDA excitotoxicity ([1]; compound applied 30 min prior to recording, bath application of NMDA) | NMDA receptor induced cell death [2] | NMDA-induced calcium transients [3] | TRPM4-like outwardly rectifying current activated by 10 μM Ca2+ [4] | protection against NMDA induced cell death (neuroprotective effect) [5] | NMDA receptor induced mitochondrial membrane potential breakdown ([1]; polypeptides expressed via rAAV, bath application of 20 μM NMDA) | Gabazine induced calcium influx into mitochondria [6] |
| --- | --- | --- | --- | --- | --- | --- | --- |
| NCC1CCN(CC(=O)Nc2cc(Cl)c(Cl)cc2Cl)C1 (stereo not shown) [P15] | significantly protect mitochondrial membrane potential from NMDA excitotoxicity | reduced the level of NMDA receptor induced cell death | neither compound P4 nor compound P15 reduced; also recorded: neither compound P4 nor P15 reduced | not affected |  |  |  |
| SEQ ID NO:54: derivative of SEQ ID NO:5, having a conservative substitution of two Y for two F (NSEERAARLLLRRCPLWGEATCLQLAMQADARAYYAQDGVQSLLTQKWWGEMDSTTP; Mutant of SEQ ID NO:5 with F34Y and F35Y) |  |  |  |  | only slightly less effective in reducing NMDA receptor-mediated cell toxicity than SEQ ID NO:5 | capable of preventing NMDA receptor induced mitochondrial membrane potential breakdown | neither of these polypeptides affects synaptic NMDA receptor signalling; also recorded: not affected |

Source: patent US20260242440A1, “NOVEL MEANS TO MODULATE NMDA RECEPTOR-MEDIATED TOXICITY” (FUNDAMENTAL PHARMA GMBH, priority 2018, published 2026)
